In patent US12240890B2, “Compositions and methods for treating and/or preventing pathogenic fungal infection and for maintenance of microbiome commensalism” (priority 2017, dated 2025):
“And” between values parts separate entries of the source, which are not always exact repeats. Equal entries are not always repeated. No end group written: not given here.

Tests used:
[1] = system: C. albicans strain SC5314; test: crystal violet based biofilm assay (24 hours, OD600); assay type: cell-based, Candida albicans; details: for Mean Normalized to vehicle control: biofilm OD600 values normalized to vehicle control, 24 hours; for inhibition of biofilm formation: crystal violet staining, 10-20 uM of respective peptides; for efficacy in inhibiting formation of biofilm relative to PYY13-36: in vitro, Candida albicans
Procedure: FIG. 13. […] Biofilm formation was measured in an assay that quantitates biofilms by staining with a crystal violet dye. The amount of dye absorbed by the biofilm positively correlates with amount of biofilm present. Amount of dye is measured via an optical density reading at a wavelength of 600 nm (OD600). Biofilm formation is measured over 24 hours in the presence or absence of peptides at 10, 30, or 40 uM concentrations.
Candida albicans (sc3514 cited in: Romanowski et al. PLOS One 7: e30119, 2012.: incorporated by reference in its entirety) and Candida tropicalis (ATCC #13803) were maintained in frozen glycerol stocks at −80° C. and streaked out on yeast-peptone-dextrose (YPD) agar plates for 48 hours at 30° C. prior to use. Single colonies were selected and cultured in YPD media at 30° C. Biofilm assays were performed using crystal violet straining (Taff et al. Med Mycol 50:214-218, 2012.: incorporated by reference in its entirety) in the presence of 10-20 uM of respective peptides. To induce hyphal growth, strains were placed in YPD+5% FBS or RPMI media at 37° C. for 4 hours. To image hyphal membrane disruption, the DNA binding fluorescent dye, propidium iodide (PI), was added to wells strains in the presence of peptides and imaged under bright field and far red fluorescent conditions. […] To investigate Candida albican virulence gene expression, 10 μL of a 1.0 OD600 culture were placed in 1 mL RPMI at 37° C. with shaking for 8 hours. Cultures were centrifuged at 3000×g for 5 minutes and RNA isolation was performed as described below.
Antifungal activity of peptides described in this application was tested by performing a crystal violet based biofilm assay. In this assay, Candida albicans is induced to form a biofilm in a 96-well plate for 24 hours in the presence or absence of peptide. Biofilm formation is quantitated through crystal violet staining and solubilization followed by optical density reading. […] Data are OD600 values normalized to appropriate within experiment vehicle control. Statistical analysis was performed via 2-Way ANOVA with multiple comparisons post-test. Significance is denoted by: *=p<0.05; **=p<0.01; ***-p<0.001; ****=p<0.0001. ns=not significant.

[2] = system: Candida albicans; test: Candida albicans culture growth; assay type: cell-based; details: hyphal inducing conditions (broth culture containing serum)

| Substance | Mean Normalized to vehicle control ([1]; 10 μM peptide) | Mean Normalized to vehicle control ([1]; 30 μM peptide) | Mean Normalized to vehicle control ([1]; 40 μM peptide) | C. albicans culture growth [2] | inhibition of biofilm formation [1] | efficacy in inhibiting formation of biofilm relative to PYY13-36 [1] |
| --- | --- | --- | --- | --- | --- | --- |
| SPEELNRYYASLRHYLRLVTRQRY [AVpeptide 22, (N29R)] | 0.84 | 0.37 | – | – | – | – |
| SPEELNRYLASLRHYLNLVTRQRY [AVpeptide 28, (Y21L)] | – | 0.09 and 0.17 | – | – | – | – |
| LPEELNRYYASLRHYLNLVTRQLY [AVpeptide 11, (S13L; R35L)] | – | – | 0.99 | – | – | – |
| PYY1-13: PYY peptide composed of amino acids 1-13 (YPIKPEAPGEDAS) | – | – | – | displayed no antifungal properties | – | – |
| SPEELNRYYASLRHYLNLVTRQLY [AVpeptide 21, (R35L)] | 0.92 | 0.02 | – | – | – | – |
| PYY1-12: N-terminal PYY fragment used as inactive comparison peptide (YPIKPEAPREDA; Peptide YY; UniProt P10082 29-40, looked up, fragment) [reference compound] | – | – | – | – | not a scrambled peptide control or PYY1-12, were capable of blocking biofilm formation | – |
| SPDELNRYYASLRKYLNLVTRQRY [AVpeptide 14, (E15D, H26K)] | 0.82 | 0.07 | 0.07 | – | – | – |
| SPEELNRLLASLRHLLNLVTRQRY [AVpeptide 32, (Y20L, Y21L, Y27L)] | – | – | – | – | – | increased inhibition of biofilm formation |
| SPEELNRYYASLRHYLRLVTRQLY [AVpeptide 9, (N29R; R35L)] | – | – | 0.05 | – | – | – |
| SPEELNRYYASLRHYYNLVTRQRY [AVpeptide 12, (L28Y)] | 1.01 | 0.46 | 0.15 | – | – | – |
| PEELNRYYASLRHYLNAVTRQRY [AVpeptide 2, (14-36, L30A)] | 1.05 and 1.02 | 0.91 and 1.08 | 1.01 | – | – | – |
| SPEELNRYYASLRHYLNLVTRQ [AVpeptide 15, (13-34)] | 0.96 | 0.78 | 0.69 | – | – | – |
| SPEELNRYYASLRHYLNLVTRQYY [AVpeptide 7, (R35Y)] | 0.97 | 0.08 | 0.33 | – | – | – |
| SPEELNRYYASSRHYLNLVTRQRY [AVpeptide 19, (L24S)] | 1.06 | 1.01 | 0.97 | – | – | reduced efficacy |
| PYY14-36 Modified: PYY14-36 with Arginine replaced by Alanine (PEELNAYYASLAHYLNLVTAQAY; ends and bridges not checked) [reference compound] | – | – | – | – | reduced the inhibitory effect | – |
| SPEELNRYYASLRHYLNLVTRQR [AVpeptide 24, (PYY13-35)] | 0.83 | 0.71 | – | – | – | reduced efficacy |
| PEELNRYYASLRHYLNAVTRQLA [AVpeptide 4, (14-36, L30A; R35L; Y36A)] | 1.04 and 0.98 | 0.89 and 0.94 | 0.88 | – | – | – |
| YPEEYNRYYASYRHYLNLVTRQRY [AVpeptide 17, (S13Y L17Y L24Y)] | 0.91 | 0.94 | – | – | – | – |
